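1) Cells in 96-well plates. 2) Compound, 48 h, 5 concentrations. 3) Linear interpolation between surrounding doses. 4) Unreached endpoint = highest concentration. Here, GI50 denotes the concentration required for 50% inhibition of growth.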 The source made the active and inactive calls. Rule as the data show it: active = GI50 up to about 1.1 µM and inactive = higher.
What was measured:
Assay in all cases: inhibition of tumour cell growth, NCI panel, 48 h
BT-549 = system: BT-549
CAKI-1 = system: CAKI-1
HL-60 = system: HL-60
HOP-92 = system: HOP-92
Hs-578T = system: Hs-578T
IGROV-1 = system: IGROV-1
MCF7 = system: MCF7
NCI-H226 = system: NCI-H226
NCI-H460 = system: NCI-H460
NCI-H522 = system: NCI-H522
OVCAR-3 = system: OVCAR-3
PC-3 = system: PC-3
SF-295 = system: SF-295
SK-MEL-2 = system: SK-MEL-2
SK-MEL-5 = system: SK-MEL-5
SN12C = system: SN12C
SNB-75 = system: SNB-75
SR = system: SR
T47D = system: T47D
TK-10 = system: TK-10

SMILES | GI50 (BT-549) | GI50 (CAKI-1) | GI50 (HL-60) | GI50 (HOP-92) | GI50 (Hs-578T) | GI50 (IGROV-1) | GI50 (MCF7) | GI50 (NCI-H226) | GI50 (NCI-H460) | GI50 (NCI-H522) | GI50 (OVCAR-3) | GI50 (PC-3) | GI50 (SF-295) | GI50 (SK-MEL-2) | GI50 (SK-MEL-5) | GI50 (SN12C) | GI50 (SNB-75) | GI50 (SR) | GI50 (T47D) | GI50 (TK-10)
CC(=O)O[C@@H]1C[C@@]2(C)[C@@H]3CC=C4[C@@H](C[C@H](O)C(=O)C4(C)C)[C@]3(C)C(=O)C[C@]2(C)[C@H]1[C@@](C)(O)C(=O)/C=C/C(C)(C)OC(C)=O | 0.336 µM (active) | 0.211 µM (active) | 0.746 µM (active) | 0.912 µM (active) | 4.71 µM (inactive) | 0.368 µM (active) | 3.57 µM (inactive) | 0.338 µM (active) | 0.428 µM (active) | 0.541 µM (active) | 4.81 µM (inactive) | 1.59 µM (inactive) | 1.2 µM (inactive) | 1.26 µM (inactive) | 1.99 µM (inactive) | 0.957 µM (active) | 1.85 µM (inactive) | 3.33 µM (inactive) | 10.1 µM (inactive) | 0.0787 µM (active)
O=S1(=O)c2ccccc2NC(=S)N1c1ccccc1 | 47.6 µM (inactive) | > 72.8 µM (inactive) | 32 µM (inactive) | 3.89 µM (inactive) | 69.2 µM (inactive) | 2.45 µM (inactive) | 63.2 µM (inactive) | 43.9 µM (inactive) | > 79.1 µM (inactive) | 21.3 µM (inactive) | 41.4 µM (inactive) | 58.3 µM (inactive) | 3.49 µM (inactive) | 73.5 µM (inactive) | 32 µM (inactive) | 62.2 µM (inactive) | 2.61 µM (inactive) | 44.8 µM (inactive) | 69.5 µM (inactive) | > 72.4 µM (inactive)
CC(C)(C)N(Cc1ccccc1)C(=O)/C=C\[S+]([O-])c1ccccc1 (stereo not given) | 2.94 µM (inactive) | 5.85 µM (inactive) | 2.1 µM (inactive) | 3.37 µM (inactive) | 2.07 µM (inactive) | 4.79 µM (inactive) | 2.92 µM (inactive) | 5.07 µM (inactive) | 4.1 µM (inactive) | 1.19 µM (inactive) | 2.48 µM (inactive) | 3.56 µM (inactive) | 13.4 µM (inactive) | 2.8 µM (inactive) | 5.25 µM (inactive) | 2.61 µM (inactive) | 10.9 µM (inactive) | 1.58 µM (inactive) | 4.2 µM (inactive) | 6.75 µM (inactive)
CCCC(=O)OC[n+]1ccc(-c2c(COC(=O)NC(C)C)c(COC(=O)NC(C)C)c3n2CCC3)cc1 | > 100 µM (inactive) | 21.8 µM (inactive) | 33.3 µM (inactive) | > 100 µM (inactive) | > 100 µM (inactive) | > 100 µM (inactive) | 80.7 µM (inactive) | > 100 µM (inactive) | 76.4 µM (inactive) | > 100 µM (inactive) | > 100 µM (inactive) | 92.7 µM (inactive) | 81.7 µM (inactive) | > 100 µM (inactive) | > 100 µM (inactive) | > 100 µM (inactive) | 87.3 µM (inactive) | 4.99 µM (inactive) | > 100 µM (inactive) | > 100 µM (inactive)
O=C1c2ccccc2C(=O)c2c1ccc1c3ccccc3n(-c3ccccc3)c21 | 25.7 µM (inactive) | 18.2 µM (inactive) | 2.03 µM (inactive) | 4.84 µM (inactive) | 15 µM (inactive) | 25.4 µM (inactive) | 16 µM (inactive) | 26.1 µM (inactive) | 27.2 µM (inactive) | 15.4 µM (inactive) | 19.5 µM (inactive) | 28.1 µM (inactive) | 18.2 µM (inactive) | 25.7 µM (inactive) | 16.1 µM (inactive) | 17.8 µM (inactive) | 18.3 µM (inactive) | 5.89 µM (inactive) | 14.6 µM (inactive) | 40.8 µM (inactive)
CCO[C@H]1O[C@@H]2OC3(C)CCC4[C@H](C)CCC([C@H]1C)[C@]42OO3 (stereo not given in full) | > 100 µM (inactive) | > 100 µM (inactive) | 0.159 µM (active) | > 100 µM (inactive) | 29.9 µM (inactive) | > 73.8 µM (inactive) | 19.4 µM (inactive) | > 100 µM (inactive) | > 55 µM (inactive) | 43.5 µM (inactive) | 15.5 µM (inactive) | 0.729 µM (active) | > 20.2 µM (inactive) | > 100 µM (inactive) | 16 µM (inactive) | 68.2 µM (inactive) | > 74.1 µM (inactive) | 10.3 µM (inactive) | 7.11 µM (inactive) | > 95.5 µM (inactive)
C=C1CCCC(C)(C)C1CCC1(C)CCC(C(C)C(=O)OC)OO1 (stereo not given) | 4.9 µM (inactive) | 0.383 µM (active) | 2.21 µM (inactive) | 0.764 µM (active) | 5.57 µM (inactive) | 0.63 µM (active) | > 21.5 µM (inactive) | 6.18 µM (inactive) | 0.908 µM (active) | 3.34 µM (inactive) | 21.8 µM (inactive) | 3.74 µM (inactive) | 4.48 µM (inactive) | 10.8 µM (inactive) | 5.19 µM (inactive) | 3.77 µM (inactive) | 3.15 µM (inactive) | 3.02 µM (inactive) | 4.32 µM (inactive) | 4.28 µM (inactive)
